What was measured:
human mGluR5 receptor = molecular target: T1, human mGluR5 receptor (Homo sapiens, UniProt P41594); experiment: Functional Assay 1: intracellular Ca2+ mobilization, positive allosteric modulation of glutamate EC20 response; type: cell-based; conditions: for EC50: human mGluR5 over-expressing HEK-293 cells, glutamate EC20 (~0.2 μM), updated value; for Emax: maximum % effect relative to glutamate ECMax
T1 construct: expressed in transfected cells; host or cells: HEK-293
Procedure: HEK-293 cells were stable transfected with human mGluR5a cDNA in expression vector pcDNA4/TO. For Assay 1, these human mGluR5 receptor over-expressing HEK-293 cells were grown at a density of 40,000 cells/well in PDL-coated 384-well plates. The following day, cells were preloaded with the calcium-sensing dye Fluo-4 AM and various concentrations of test compound were added in the absence of exogenous glutamate to test for direct agonist activity. Shortly (2.5 min) thereafter, an EC20 equivalent of glutamate (˜0.2 μM) was added. The fluorescence signal was monitored using a Hamamatsu Functional Drug Screening System (FDSS) fluorescence plate reader following the addition of compound alone (direct agonist response) and then the further addition of an EC20 of glutamate (positive allosteric modulation response). The pEC50 was defined as the negative log of the test compound concentration which produced an increase in the glutamate EC20-mediated response that was 50% of maximum. Individual amplitudes were expressed as % effect by multiplying each amplitude by 100 and then dividing the product by the mean of the amplitudes derived from the glutamate ECMax-treated wells. Emax values reported in this application are defined as the maximum % effect obtained in a concentration-response curve.

human mGluR5a receptor = molecular target: T2, human mGluR5a receptor (Homo sapiens, UniProt P41594); experiment: Functional Assay 2: Ca2+ mobilization, HEK cells with human mGluR5a receptor (H10H cell line); type: cell-based; conditions: H10H cell line; for EC50: glutamate EC20; for Emax: HEK293, maximum average response at a single concentration, relative to glutamate ECMax
T2 construct: host or cells: HEK293A (monoclones H10H and H12H)
Procedure: Human mGluR5a cDNA in pCMV6-XL6 mammalian expression plasmid was purchased from OriGene Technologies, Inc. (catalogue number SC326357) and subcloned into pcDNA3.1(−). […] Monoclones were named for the species (“H” for human) plus the location on the plate (e.g. “10H”).
The following day, the growth medium was removed and the cells were washed with assay buffer containing 1× Hank's balanced salt solution (Invitrogen, Carlsbad, Calif.), 20 mM HEPES, 2.5 mM probenecid, pH 7.4 and left with 20 μL of this reagent. Following this step, the cells were loaded with calcium indicator dye, fluo-4 AM, to a final concentration of 2 μM and incubated for 40-45 min at 37° C. The dye solution was removed and replaced with assay buffer. Cell plates were held for 10-15 min at room temperature and were then loaded into the Functional Drug Screening System 6000 (FDSS 6000, Hamamatsu, Japan).
After establishment of a fluorescence baseline for about 3 seconds, the compounds of the present invention were added to the cells, and the response in cells was measured. 2.3 minutes later an EC20 concentration of the mGluR5 receptor agonist glutamate was added to the cells, and the response of the cells was measured for about 1.7 minutes. All test compounds were dissolved and diluted to a concentration of 10 mM in 100% DMSO and then serially diluted into assay buffer for a 2× stock solution in 0.6% DMSO; stock compounds were then added to the assay for a final DMSO concentration of 0.3% after the first addition to the assay well. Calcium fluorescence measures were recorded as fold over basal fluorescence; raw data was then normalized to the maximal response to glutamate.
The concentration-response curves of compounds of the present invention, obtained in the presence of EC20 of mGluR5 receptor agonist glutamate to determine positive allosteric modulation, were generated using Microsoft Excel with IDBS XLfit add-ins. The raw data file containing all time points was used as the data source in the analysis template. This was saved by the FDSS as a tab-delimitted text file. Data were normalized using a static ratio function (F/F0) for each measurement of the total 350 values per well divided by each well's initial value. […] This is sufficient time to capture the peak amplitude of the cellular calcium response. […] Each of the three values collected at each concentration of test compound were weighted evenly. […] These two methods are in good agreement for curves with a clear plateau at the high concentration range.

T2 sequence (P41594 21-1180 isoform P41594-2 limits assumed): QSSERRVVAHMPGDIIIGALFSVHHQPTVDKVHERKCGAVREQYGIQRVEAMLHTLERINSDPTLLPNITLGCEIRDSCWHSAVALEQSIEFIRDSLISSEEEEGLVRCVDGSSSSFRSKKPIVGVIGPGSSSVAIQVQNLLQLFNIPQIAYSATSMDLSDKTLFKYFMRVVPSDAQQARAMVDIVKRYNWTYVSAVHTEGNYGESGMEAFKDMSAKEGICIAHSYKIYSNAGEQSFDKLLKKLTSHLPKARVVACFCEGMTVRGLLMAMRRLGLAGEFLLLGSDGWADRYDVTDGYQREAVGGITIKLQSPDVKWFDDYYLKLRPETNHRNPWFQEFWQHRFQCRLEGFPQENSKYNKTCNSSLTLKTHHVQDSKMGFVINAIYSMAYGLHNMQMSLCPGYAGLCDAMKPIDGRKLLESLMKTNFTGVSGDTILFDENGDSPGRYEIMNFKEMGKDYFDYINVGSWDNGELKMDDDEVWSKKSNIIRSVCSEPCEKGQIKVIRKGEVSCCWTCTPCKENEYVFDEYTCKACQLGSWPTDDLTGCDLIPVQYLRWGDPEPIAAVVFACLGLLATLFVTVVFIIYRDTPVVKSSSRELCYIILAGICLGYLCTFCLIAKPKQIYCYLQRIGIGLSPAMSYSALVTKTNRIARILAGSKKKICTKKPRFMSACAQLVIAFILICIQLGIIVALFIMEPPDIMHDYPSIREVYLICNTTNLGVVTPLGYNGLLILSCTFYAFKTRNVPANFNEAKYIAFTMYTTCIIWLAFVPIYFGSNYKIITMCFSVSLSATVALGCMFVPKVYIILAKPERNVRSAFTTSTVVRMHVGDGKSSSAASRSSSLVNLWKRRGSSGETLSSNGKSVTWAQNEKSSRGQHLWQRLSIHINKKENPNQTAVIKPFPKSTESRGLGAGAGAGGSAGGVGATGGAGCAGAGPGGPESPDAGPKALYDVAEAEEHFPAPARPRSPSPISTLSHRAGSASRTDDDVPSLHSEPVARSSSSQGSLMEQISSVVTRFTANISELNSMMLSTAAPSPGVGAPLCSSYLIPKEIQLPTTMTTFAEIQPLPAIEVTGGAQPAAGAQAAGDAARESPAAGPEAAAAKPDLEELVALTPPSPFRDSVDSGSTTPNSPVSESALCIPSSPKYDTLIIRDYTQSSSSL
T1 sequence (P41594 21-1180 isoform P41594-2 limits assumed): as above

melting point [°C] | EC50 (human mGluR5 receptor) [nM] | Emax (human mGluR5 receptor) [%] | EC50 (human mGluR5a receptor) [nM] | Emax (human mGluR5a receptor) [%] | Structure (SMILES)
104.3 to 107.2 | 955 | 54 | – | – | O=C1c2sc(OCc3ccc(F)cc3F)nc2CCN1c1ccc(F)cc1F [Compound 23, 5-(2,4-difluorophenyl)-2-[(2,4-difluorophenyl)methoxy]-6,7-dihydro-thiazolo[5,4-c]pyridin-4(5H)-one]
> 280 | > 30200 | 27 | – | – | O=C1c2sc(OCc3ccc(C(F)(F)F)cc3)nc2CCN1c1ccc(F)cc1F [Compound 78, 5-(2,4-difluorophenyl)-6,7-dihydro-2-[[4-(trifluoromethyl)phenyl]methoxy]-thiazolo[5,4-c]pyridin-4(5H)-one]
151.8 to 153 | – | – | 550 | 63 | O=C1c2sc(COc3ccccc3F)nc2CCN1c1ccc(F)cn1 [Compound 55, 2-[(2-fluorophenoxy)methyl]-5-(5-fluoro-2-pyridinyl)-6,7-dihydro-thiazolo[5,4-c]pyridin-4(5H)-one]
105.9 | – | – | 1070 | 70 | CN1CCCc2nc(COc3ccccc3)sc2C1=O [Compound 38, 5,6,7,8-tetrahydro-5-methyl-2-(phenoxymethyl)-4H-thiazolo[5,4-c]azepin-4-one]
268.9 to 284.1 | – | – | 97.7 | 81 | O=C1c2sc(COc3ccccc3)nc2CCN1c1ccc(F)cc1F [Compound 29, 5-(2,4-difluorophenyl)-6,7-dihydro-2-(phenoxymethyl)-thiazolo[5,4-c]pyridin-4(5H)-one]
112.9 | – | – | 158 | 25 | N#Cc1cccc(COc2nc3c(s2)C(=O)N(c2ccc(F)cc2F)CC3)c1 [Compound 20, 3-[[[5-(2,4-difluorophenyl)-4,5,6,7-tetrahydro-4-oxothiazolo[5,4-c]pyridin-2-yl]oxy]methyl]-benzonitrile]
91 to 92.5 | – | – | 372 | 45 | O=C1c2sc(OCc3ccccc3F)nc2CCN1c1ccc(F)cc1 [Compound 22, 5-(4-fluorophenyl)-2-[(2-fluorophenyl)methoxy]-6,7-dihydro-thiazolo[5,4-c]pyridin-4(5H)-one]
108 to 111.2 | – | – | 1860 | 48 | O=C1c2sc(OCc3ccccc3)nc2CCN1Cc1ccc(F)cc1F [Compound 13, 5-[(2,4-difluorophenyl)methyl]-6,7-dihydro-2-(phenylmethoxy)-thiazolo[5,4-c]pyridin-4(5H)-one]
152.8 | – | – | 174 | 63 | O=C1c2sc(COc3cccc(F)c3)nc2CCN1c1ccc(F)cc1 [Compound 25, 2-[(3-fluorophenoxy)methyl]-5-(4-fluorophenyl)-6,7-dihydro-thiazolo[5,4-c]pyridin-4(5H)-one]
95.2 to 97.2 | – | – | 331 | 54 | Cc1cccc(COc2nc3c(s2)C(=O)N(c2ccc(F)cc2F)CC3)c1 [Compound 21, 5-(2,4-difluorophenyl)-6,7-dihydro-2-[(3-methylphenyl)methoxy]-thiazolo[5,4-c]pyridin-4(5H)-one]
167.6 | – | – | 1700 | 62 | O=C1c2sc(COc3ccccc3)nc2CCN1c1cncc(F)c1 [Compound 57, 5-(5-fluoro-3-pyridinyl)-6,7-dihydro-2-(phenoxymethyl)-thiazolo[5,4-c]pyridin-4(5H)-one]
185.8 to 186.8 | – | – | 295 | 56 | O=C1c2sc(COc3ccc(F)cc3)nc2CCN1c1ccc(F)cn1 [Compound 53, 2-[(4-fluorophenoxy)methyl]-5-(5-fluoro-2-pyridinyl)-6,7-dihydro-thiazolo[5,4-c]pyridin-4(5H)-one]
100.1 to 105.2 | – | – | 195 | 76 | O=C1c2sc(COc3ccccc3F)nc2CCN1c1ccc(F)cc1F [Compound 59, 5-(2,4-difluorophenyl)-2-[(2-fluorophenoxy)methyl]-6,7-dihydro-thiazolo[5,4-c]pyridin-4(5H)-one]
